One may read the EC50 as the concentration needed to bring the measured effect to its halfway point.

The text below walks through data of patent publication US20250236627A1, “CERTAIN OCTAHYDROFURO[3,4- B]PYRAZINES AS GLP-1 RECEPTOR MODULATORS” (ASTRAZENECA AB, priority 2021, published 2025).

Experiment [1] addresses T1, endogenous human glucagon-like peptide 1 receptor (GLP-1R) (Homo sapiens, UniProt P43220).
T1 construct: endogenous human glucagon-like peptide 1 receptor (GLP-1R) in a pancreatic insulinoma cell line; host or cells: EndoC-βH1 human pancreatic β cell line
Kind of experiment: EndoC cAMP Accumulation Assay. It is filed as cell-based. As to conditions: EndoC-βH1 human pancreatic β cell line; HTRF cAMP assay. An excerpt:
EndoC cAMP Accumulation Assay
A HTRF (Homogeneous Time-Resolved Fluorescence) cAMP assay (cAMP Gs dynamic kit; CisoBio Cat #62AM4PEJ) was used to identify agonists of the endogenous human glucagon-like peptide 1 receptor (GLP-1R) in a pancreatic insulinoma cell line (EndoC-βH1). […] EndoC-βH1 cells have detectable GLP-1R mRNA as detected by qPCR^1. […] The EndoC-βH1 cell line is a valid model of human beta cells and applicable for screenings to identify novel drug target candidates (Mol. Metab., 2018, 8, 144-157). CisBio HTRF cAMP kits are based on a competitive immunoassay using cryptate-labelled anti-cAMP antibody and d2-labeled cAMP. The detection kit is intended for the direct quantitative determination of cAMP. The specific signal (i.e. energy transfer) is inversely proportional to the concentration of cAMP in the standard or sample. Test compounds (10 mM in DMSO) were diluted into assay buffer (HBSS (Sigma #H8264) supplemented with 25 mM HEPES (Gibco #15630, pH 7.4), 0.1% BSA (Sigma #A3059) and 0.5 mM IBMX (Sigma #I7018) included fresh on the day of the assay) into 96 well U-bottom plates (Greiner #650201). Diluted compounds were transferred to ECHO source PP plates (Labcyte #P-05525) and dose response curves were dispensed acoustically using ECHO 550 into black shallow-well u-bottom 384-well HTRF Assay Plates (Corning 4514).
Cryovials of EndoC-H1 (supplied at 1×10e^7 cells/vial) were used directly for screening. The cryovials and were removed from LN2 and thawed rapidly in a 37° C. water bath. The cells were resuspended in assay buffer and centrifuged at 300 g for 5 min. Cells were resuspended in assay buffer at the appropriate concentration, typically at 12e5 cells per mL (3000 cells per well, dependent on cell batch) and 2.5 μL diluted cells were added to all wells of destination plate by Multidrop combi reagent dispenser (Thermofisher). The plates were incubated at room temperature for 30 min. The assay was stopped by adding 2.5 μL anti-cAMP cryptate solution to all wells and 2.5 μL cAMP-d2 solution (both diluted 1:20 in lysis buffer) to columns 1-22 by Combi drop. A volume of 2.5 μL cAMP-d2 solution was added to wells E23 to P24 and 2.5 μL lysis buffer added to wells A23 to D24 by multichannel pipette. The plates were incubated at room temperature for 1 hr and read on an Envision plate reader using excitation wavelength of 320 nm and emission of 590 nm and 660 nm.
Raw data from Envision is converted to % DeltaF according to the manufacturer's instructions. Dose response curves are analysed via 4-Parameter Logistical Analysis and assay plate Z′ values obtained. Samples are graphed as percentage (%) activation plots compared to GIP (1-42, Bachem H-5645) with assay window defined by negative control as basal cell cAMP levels and positive control are defined by maximum GIP (82.5 nM) signal. GLP1 (7-36 amide, Bachem H-6795) dose response curve was included on all plates.
In general terms: Time-resolved FRET reads energy transfer from a long-lived donor to a nearby acceptor.

The target in a further experiment is T2, human GLP-1R receptor (Homo sapiens, UniProt P43220, L260F).
T2 construct: expressed in transfected cells; host or cells: CHO-K1 (ATCC CCL-61)
Put plainly: CHOK1 GLP-1R cAMP Assay. It counts as cell-based. As to conditions: CHO-K1 cell line stably expressing human GLP-1R; HTRF cAMP detection. The procedure:
A cell line stably expressing the human GLP-1R receptor (NM_002062.5, including the naturally-occurring variant Leu260Phe) in a CHO-K1 (ATCC® CCL-61™) was used for assay.
GLP-1 Receptor mediated agonist activity was determined in a cell based assay measuring cAMP levels in cells using Homogeneous Time-Resolved Fluorescence (HTRF) cAMP detection kit (CisBio catalog #62AM4PEC, cAMP Gs Dynamic range kit). The cAMP detection method is based on a competitive immunoassay, in which cAMP produced by the cells and cAMP labeled with the dye d2 compete for binding to a Europium-Cryptate-labeled anti-cAMP antibody. The specific HTRF signal is inversely proportional to the concentration of cAMP.
Compounds were added to individual well in 384 well-assay plates (Greiner #784076) using an Echo (LabCyte) dispenser from 10 mM stocks. Varying concentration of compounds were added to wells, and dimethyl sulfoxide was used to normalize each well to a volume of 100 nanoliter. A dose response curve of GLP1(7-36)NH2 (Bachem H-6795) was included in each run. 5 μL of cAMP concentration response standards are applied in specified wells in the assay plates.
Cryo-preserved cells are thawed and resuspended in assay buffer pre-heated to 37° C. (20 mM 2-[4-(2-hydroxyethyl)piperazin-1-yl]ethanesulfonic acid (HEPES) pH 7.4, lx Hank's Balanced Salt Solution (HBSS, Life Technologies #14065) supplemented with 0.1% (w/v) bovine serum albumin (Sigma, A-7030)). Cells were centrifuged at 250*g for 5 min at room temperature, and resuspend in room tempered assay buffer to a final density of 0.16*10^6 cell/mL, to deliver 800 cells/well. 5 μL of assay buffer with 1 mM 3-isobutyl-1-methylxanthin (IBMX; Sigma cat I-7018) was dispensed per well in assay plates using a multidrop combi (Thermo Scientific) subsequently 5 μL of cell suspension was distributed to relevant wells in the assay using a multidrop dispenser. Assay plates were incubated 20 min at room temperature.
Detection reagents, Europium-Cryptate-labeled anti-cAMP antibody and cAMP labeled with the dye d2, are diluted in lysis buffer, provided by the manufacturer. 5 μL of each detection reagent is supplemented to each assay well using a multidrop dispenser. Assay plates are incubated in the dark for at least one hour. The HTRF signal is measured using the HTRF module (excitation: 337 nm, emission A: 665 nm and emission B: 620 nm) in Pherastar FSX (BMG Labtech).
Raw data were converted to pM cAMP using the cAMP standard curve included in each run. Converted data were further analyzed in Genedata Screener (Genedata) and EC50 determinations were made from agonist dose-response curves analyzed with a curve fitting program using a 4-parameter logistic dose response equation (Equation y=A+((B−A)/1+((C/x)^D))) where A is no stimulation, B is full stimulation, C is the EC50 and D is the Hill slope). The percent effect was determined relative to a saturating concentration of a full GLP-1R agonist (GLP1(7-36)NH2 has 100% effect in this assay setup).

T2 sequence (P43220 24-463 L260F): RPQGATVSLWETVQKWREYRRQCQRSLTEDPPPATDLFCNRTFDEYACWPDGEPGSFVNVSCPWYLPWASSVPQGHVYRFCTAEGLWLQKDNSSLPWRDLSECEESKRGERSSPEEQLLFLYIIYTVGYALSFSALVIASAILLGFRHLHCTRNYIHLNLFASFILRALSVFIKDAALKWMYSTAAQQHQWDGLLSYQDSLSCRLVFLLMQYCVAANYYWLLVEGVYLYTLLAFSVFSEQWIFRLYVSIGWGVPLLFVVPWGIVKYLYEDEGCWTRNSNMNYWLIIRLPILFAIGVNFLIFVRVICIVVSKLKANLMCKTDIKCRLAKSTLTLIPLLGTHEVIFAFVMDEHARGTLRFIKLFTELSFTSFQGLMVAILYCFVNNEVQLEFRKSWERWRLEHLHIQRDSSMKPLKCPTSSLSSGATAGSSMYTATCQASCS
T1 sequence (P43220 24-463): as the sequence (P43220 24-463 L260F) above, with F237L counted along it

For the compound `C[C@]1(c2ccc(Cl)cc2F)Oc2cccc(N3CCN(Cc4nc5c(Cl)cc(C(=O)O)cc5n4C[C@@H]4CCO4)[C@H]4COC[C@H]43)c2O1` (single isomer, unassigned) [Example 15b, 4-Chloro-2-(((4aR*,7aS*)-4-((R*)-2-(4-chloro-2-fluorophenyl)-2-methylbenzo[d][1,3]dioxol-4-yl)hexahydrofuro[3,4-b]pyrazin-1(2H)-yl)methyl)-1-(((S)-oxetan-2-yl)methyl)-1H-benzo[d]imidazole-6-carboxylic acid], the results for the EC50 (in experiment [1]; on human GLP-1R receptor) were 120 nM and 71 nM, respectively.
With `C[C@]1(c2ccc(Cl)cc2F)Oc2cccc(N3CCN(Cc4nc5c(F)cc(C(=O)O)cc5n4Cc4cccnc4)[C@H]4COC[C@H]43)c2O1` (single isomer, unassigned) [Example 13a], the EC50 in experiment [1] came to 13 nM; on human GLP-1R receptor, 55 nM.
Consider `COc1cc(C(=O)O)cc2c1nc(CN1CCN(c3cccc4c3OC(C)(c3ccc(Cl)cc3F)O4)[C@@H]3COC[C@@H]31)n2C[C@@H]1CCCO1` (relative stereo) [Example 28, 2-(((4aS,7aR)-4-((R*)-2-(4-Chloro-2-fluorophenyl)-2-methylbenzo[d][1,3]dioxol-4-yl)hexahydrofuro[3,4-b]pyrazin-1(2H)-yl)methyl)-4-methoxy-1-(((S)-tetrahydrofuran-2-yl)methyl)-1H-benzo[d]imidazole-6-carboxylic acid], for which the EC50 in experiment [1] is 1.2 nM; on human GLP-1R receptor, 2 nM.
As to `COc1cc(C(=O)O)cc2c1nc(CN1CCN(c3cccc4c3O[C@@](C)(c3ccc(Cl)cc3F)O4)[C@@H]3COC[C@@H]31)n2C[C@@H]1CCO1` (single isomer, unassigned) [Example 3c, 2-(((4aR*,7aS*)-4-((R*)-2-(4-Chloro-2-fluorophenyl)-2-methylbenzo[d][1,3]dioxol-4-yl)hexahydrofuro[3,4-b]pyrazin-1(2H)-yl)methyl)-4-methoxy-1-(((S)-oxetan-2-yl)methyl)-1H-benzo[d]imidazole-6-carboxylic acid], the EC50 in experiment [1] was found to be 130 nM; at human GLP-1R receptor, 150 nM.
Take `C[C@]1(c2ccc(Cl)cn2)Oc2cccc(N3CCN(Cc4nc5c(Cl)cc(C(=O)O)cc5n4CC4(CC#N)CC4)[C@H]4COC[C@H]43)c2O1` (single isomer, unassigned) [Example 24]: the EC50 in experiment [1] was found to be 4.3 nM; at human GLP-1R receptor, 3.1 nM.
As for `C[C@]1(c2ccc(Cl)cc2F)Oc2cccc(N3CCN(Cc4nc5ccc(C(=O)O)cc5n4C[C@@H]4CCO4)[C@H]4COC[C@H]43)c2O1` (single isomer, unassigned) [Example 6b, 2-(((4aR*,7aS*)-4-((R*)-2-(4-Chloro-2-fluorophenyl)-2-methylbenzo[d][1,3]dioxol-4-yl)hexahydrofuro[3,4-b]pyrazin-1(2H)-yl)methyl)-1-(((S)-oxetan-2-yl)methyl)-1H-benzo[d]imidazole-6-carboxylic acid], the EC50 in experiment [1] was 300 nM; at human GLP-1R receptor it was 54 nM.
As to `C[C@]1(c2ccc(Cl)cn2)Oc2cccc(N3CCN(Cc4nc5c(Cl)cc(C(=O)O)cc5n4C[C@@H]4CCO4)[C@H]4COC[C@H]43)c2O1` (single isomer, unassigned) [Example 14d, 4-Chloro-2-(((4aR*,7aS*)-4-((R*)-2-(5-chloropyridin-2-yl)-2-methylbenzo[d][1,3]dioxol-4-yl)hexahydrofuro[3,4-b]pyrazin-1(2H)-yl)methyl)-1-(((S)-oxetan-2-yl)methyl)-1H-benzo[d]imidazole-6-carboxylic acid], the EC50 in experiment [1] was found to be 480 nM; at human GLP-1R receptor, 190 nM.
In the case of `C[C@]1(c2ccc(Cl)cn2)Oc2cccc(N3CCN(Cc4nc5ccc(C(=O)O)cc5n4C[C@@H]4CCO4)[C@H]4COC[C@H]43)c2O1` (single isomer, unassigned) [Example 5c, 2-(((4aR*,7aS*)-4-((R*)-2-(5-Chloropyridin-2-yl)-2-methylbenzo[d][1,3]dioxol-4-yl)hexahydrofuro[3,4-b]pyrazin-1(2H)-yl)methyl)-1-(((S)-oxetan-2-yl)methyl)-1H-benzo[d]imidazole-6-carboxylic acid], the EC50 was 610 nM in experiment [1] and 100 nM on human GLP-1R receptor.
Take `C[C@]1(c2ccc(Cl)cn2)Oc2cccc(N3CCN(Cc4nc5c(F)cc(C(=O)O)cc5n4CC4(C#N)CC4)[C@H]4COC[C@H]43)c2O1` (single isomer, unassigned) [Example 22b]: the half-maximal effective concentration (EC50) in experiment [1] stood at 240 nM; at human GLP-1R receptor it was 170 nM.
`C[C@]1(c2ccc(Cl)cc2F)Oc2cccc(N3CCN(Cc4nc5c(F)cc(C(=O)O)cc5n4Cc4cocn4)[C@H]4COC[C@H]43)c2O1` (single isomer, unassigned) [Example 20a]: the EC50 stood at 410 nM in experiment [1] and 150 nM on human GLP-1R receptor.
Consider `C[C@]1(c2ccc(Cl)cc2F)Oc2cccc(N3CCN(Cc4nc5c(F)cc(C(=O)O)cc5n4C[C@@H]4CCO4)[C@H]4COC[C@H]43)c2O1` (single isomer, unassigned) [Example 16a, 2-(((4aR*,7aS*)-4-((R*)-2-(4-Chloro-2-fluorophenyl)-2-methylbenzo[d][1,3]dioxol-4-yl)hexahydrofuro[3,4-b]pyrazin-1(2H)-yl)methyl)-4-fluoro-1-(((S)-oxetan-2-yl)methyl)-1H-benzo[d]imidazole-6-carboxylic acid], for which the EC50 was 2.3 nM in experiment [1] and 1.2 nM at human GLP-1R receptor.
On to `COc1cc(C(=O)O)cc2c1nc(CN1CCN(c3cccc4c3O[C@@](C)(c3ccc(Cl)cc3F)O4)[C@@H]3COC[C@@H]31)n2C[C@@H]1CCO1` (single isomer, unassigned) [Example 3a, 2-(((4aR*,7aS*)-4-((R*)-2-(4-Chloro-2-fluorophenyl)-2-methylbenzo[d][1,3]dioxol-4-yl)hexahydrofuro[3,4-b]pyrazin-1(2H)-yl)methyl)-4-methoxy-1-(((S)-oxetan-2-yl)methyl)-1H-benzo[d]imidazole-6-carboxylic acid], for which the EC50 amounted to 1.7 nM in experiment [1] and 1.2 nM on human GLP-1R receptor.
